In patent US12150750B2, “D-glucose and its analogs as tracers to assess the glucose transporter function on blood-cerebrospinal fluid barrier and the functioning of the brain lymphatic system” (The Johns Hopkins University, priority 2020, dated 2024):

Experiments:
[1] = Dynamic glucose enhanced (DGE) onVDMP MRI at 11.7 T of glucose uptake in brain parenchyma and CSF of WT and Tau mice; assay type: in vivo, mouse; settings: for fitted ADGE (amplitude of glucose uptake at equilibrium) of parenchyma: i.v. bolus 0.15 mL 50% glucose, n=4; for half-life: female, mouse, 0.15 mL of 50% w/w glucose (0.5 g/mL)
Description: (§1) The study was carried out under the approval of Johns Hopkins University animal care and use. Four female Tau4RΔK (Tau) mice (49) with an age of 7-8 months and four female age-matched C57BL/6J mice were used for the AD study. Two age-matched BALB/c mice were used for the validation of glucose uptake using an MRS method. The Tau mice were bred at Johns Hopkins University and the onset of tau tangles starts at the age of six months (49). A catheter was placed in the tail vein for glucose administration before placing the animal in the scanner.
All MRI experiments were performed on a horizontal bore 11.7 T Bruker Biospec system (Bruker, Ettlingen, Germany) equipped with actively shielded gradients, with a maximum strength of 74 Gauss/cm. A 72 mm quadrature volume resonator was used as a transmitter and a 2×2 mouse phased array coil for acquisition. All animals were anesthetized using 2% isoflurane in medical air, followed by 1% to 1.5% isoflurane for maintenance during the MRI scan. The mouse head was positioned using a bite bar and two ear pins. During the MRI scan, mice were placed on a water-heated animal bed. Respiratory rate was monitored via a pressure sensor (SAII, Stony Brook, NY, USA) and maintained at 40-60 breaths per minute. The B0 field over the mouse brain was adjusted using field-mapping and second-order shimming.
The MRI sequence used for monitoring the glucose uptake in brain and CSF was onVDMP, illustrated in (a) of FIG. 3. The duration of each binomial pulse pair was 3 ms, and the length of a saturation module was proportional to the total number of binomial pulse pairs. Two independent onVDMP sequences with different saturation-module lengths (i.e. 36 ms and 300 ms) were repeated in an interleaved fashion to detect the glucose uptake in brain parenchyma and CSF, respectively. Other imaging parameters were: TR/TE=2.5 s/5 ms, RARE factor=23, slice thickness=1 mm, a matrix size of 196×128 within a FOV of 20×10 mm^2. The scan time for each onVDMP experiment was fixed to 7.5 s and the dynamic glucose enhanced (DGE) images were acquired continuously for 27.5 min. A bolus of 0.15 mL 50% w/w glucose (0.5 g/mL, clinical-grade dextrose, Hospira, Lake Forest, IL) was given at 10th min of the dynamic experiment through the tail vein using a syringe pump (Harvard Apparatus Holliston, MA, USA). The first five minutes of dynamic scan were used as dummy scans to make sure system reached steady-state.
According to R1ρ theory (50-52), the water signal intensity (S) after applying an onVDMP sequence is expressed in some embodiments as: S=S0e^−T^onvDMP^R^1ρ (1)
where S0 is the water signal intensity without saturation. Because ΔR1ρ induced by glucose infusion is relatively small (41-43,53,54), the normalized change of water signal intensity ΔZ is approximated in some embodiments as: ΔZ=(Sbase−S)/Sbase=1−e^−T^onvDMP^ΔR^1ρ≈TonVDMPΔR1ρ (2)
where Sbase is the referenced water signal intensity. In this study, the average of water signal intensity before glucose infusion was used as Sbase. The dynamic images are calculated in some embodiments by averaging N images within a certain time period (55): Save=Σn=1^NΔZ(n)/N (3)
To correct for motion between DGE images, image registration was applied using Medical Imaging Registration Toolbox (MIRT) (56). The regions of interest (ROIs) were selected by hand with the reference to mouse brain atlas (https://mouse.brain-map.org).
The glucose uptake curves measured by DGE MRI are fitted using exponential functions in some embodiments to allow quantitative comparison: ΔDGE(t)=ADGE(1−e^−t/T^u,DGE) (4)
where ΔDGE(t) is the DGE signal difference determined by onVDMP MRI. Tu,DGE is the glucose uptake lifetime. The half-life time of glucose uptake was calculated by the equation: Thalf=Tu*0.6931. ADGE represents the amplitudes of glucose uptake at equilibrium measured by onVDMP. […]

[2] = Validation of glucose uptake in brain using an MRS method; assay type: in vivo; settings: mouse, intravenous, BALB/c mice, read-out: half-life time of glucose uptake measured by MRS
Description: as §1

[3] = DGE onVDMP MRI at 3 T of D-glucose uptake and clearance in CSF of WT and APP/PS1 mice; assay type: in vivo, mouse; settings: for ΔS at 2 min (CSF DGE signal difference) / ΔS at 30 min (CSF DGE signal difference): n=5
From the text: All animal experiments were approved by the Animal Ethics Committee and followed the institutional guidelines of Institutional Laboratory Animal Research Unit of City University of Hong Kong. […] APP/PS1 mice are double transgenic mice expressing a chimeric mouse/human amyloid precursor protein (Mo/HuAPP695swe) and a mutant human presenilin 1 (PS1-dE9), both directed to CNS neurons. Both mutations are associated with early-onset AD. Another six 6M WT mice were used for the control experiments.
The onVDMP sequence diagram is shown in (a) of FIG. 3. By setting a different binomial pulse number N, the saturation length is adjusted to image the parenchyma and CSF, respectively. In this study, the saturation length was set to 60 ms for imaging parenchyma and 900 ms for imaging CSF. DGE experiments on both parenchyma and CSF images are acquired in an alternate way in some embodiments during one acquisition, similar to the experiments in example 1.
When carrying out the MRI experiments on mice, anesthesia was induced and maintained using isoflurane at 2% and 1.5%, respectively. The isoflurane was mixed with 90% oxygen generated by an oxygen concentrator. The flow rate of oxygen generator was set to 2 liter per minute (LPM) and kept unchanged during the whole experiment. Mice were placed in a horizontal bore 3 T Bruker BioSpec animal scanner (Bruker, Germany). A 82-mm-diameter quadrature coil and a 23-mm-diameter mouse brain surface coil were used for transmitting and receiving signal, respectively. A catheter was placed in the tail vein for glucose administration before placing the animal in the scanner. A bolus of 0.15 mL filtered 50% D-glucose was injected into the mouse body through the tail vein over one minute (speed: 0.15 ml/min) using a MRI-compatible syringe pump (Harvard Apparatus). Mouse body temperature was maintained at 37° C. using a warming pad. Respiration and body temperature were continuously monitored using an MRI-compatible monitor system (SA Instruments, Inc). Before DGE acquisition, the B0 field over the mouse brain was shimmed using field-mapping and second-order shimming. The read-out module was rapid acquisition with refocused echoes (RARE) with TR/TE=2.5 s/4.7 ms, RARE factor=32, centric encoding, slice thickness=2 mm, a matrix size of 96×96 within a field of view (FOV) of 20×20 mm^2, resulting in a time resolution of 15 s for each pair of images (7.5 s for parenchyma and 7.5 s for CSF). A total number of 550 images were acquire for each DGE module, thus leading to a total scanning time of 1 h8 min 45 s. The glucose injection was started at 8 min 45 s and lasted for 1 min. […] The image slice was positioned based on a collected sagittal image of the mouse brain with the position of the coronal image slice set to −1.4 mm with respect to the anterior commissure (AC).
All image processing and data analyses were performed using custom written code in MATLAB (R2018b, MathWorks, USA). When calculating DGE kinetic curves, baseline signal Sbase was generated by averaging the 30 baseline images. Since the total number of DGE images was large ([…] for each mouse), every set of 15 images were averaged to visualize the dynamic process of glucose changes. Then Eq. 5 was used for each time point to construct the DGE kinetic curves after glucose administration.
The DGE data of CSF were fitted by a simple gamma variate model(66,67) for only the first 20 mins after glucose injection, giving an uptake rate and an estimate of the initial rate of clearance:
where A is an amplitude modulation parameter, μin represents the glucose uptake rate, μout represents the initial rate of clearance. […] The maximum signal that CSF DGE reached is directly extracted in some embodiments after fitting as Smax=max(ΔS′CSF(t)). For both parenchymal and CSF DGE curves, fitting was achieved using the built-in nonlinear least-squares curve fitting function in MATLAB. […]

[4] = literature reference 28; cited from earlier work

Q: What does the source list for O=C[C@H](O)[C@@H](O)[C@H](O)[C@H](O)CO [D-glucose]?
A: fitted ADGE (amplitude of glucose uptake at equilibrium) of parenchyma ([1]; Tau4RΔK mice, cortex): 1.70±1.33%; CSF ADGE ([1]; Tau mice, CSF): 6.72±2.22%; time at which DGE signal reached a plateau ([1]; Tau mice, CSF): around 25 min; glucose uptake in the cortex (DGE signal intensity) ([1]; Tau mice, cortex): 1.6±1.3%; fitted ADGE (amplitude of glucose uptake at equilibrium) of parenchyma ([1]; WT mice (C57BL/6J), cortex): 5.42±0.70%; CSF ADGE ([1]; WT mice, CSF): 7.03±2.12%; drop of DGE signal from the peak value at 27.5 minutes ([1]; WT mice, CSF): about 1.5±0.5%; peak value of DGE signal ([1]; WT mice, CSF): 6±0.3%; time at which DGE signal plateaued ([1]; WT mice, CSF): around 10 min; time at which DGE signal reaches a maximum before decay ([1]; WT mice, CSF): around 15 minutes; glucose uptake in the cortex (DGE signal intensity) ([1]; WT mice, cortex): 4.3±1.3%; half-life ([1]; C57BL/6J, brain parenchyma (cortex), iv, WT mice, cortex, read-out: uptake half-life time of parenchyma): 4.71 ± 1.03 min; half-life ([1]; C57BL/6J, intravenous, brain tissue of WT mice, as restated in discussion, read-out: half-life time of glucose uptake obtained by the onVDMP method): 4.71 ± 1.18 min; half-life ([1]; C57BL/6J, iv, WT mice, CSF, read-out: uptake half-life time of CSF): 1.24 ± 0.24 min; half-life ([1]; Tau4RΔK, brain parenchyma (cortex), iv, Tau mice, cortex, read-out: uptake half-life time of parenchyma): 5.14 ± 0.3 min; half-life ([1]; Tau4RΔK, iv, Tau mice, CSF, read-out: uptake half-life time of CSF): 7.8 ± 1.14 min; time at which glucose uptake reaches a plateau ([1]; parenchymal ROI (cortex), both WT and Tau mice): about 20 min; half-life [2]: 4.16 ± 0.69 min; ΔS at 2 min (CSF DGE signal difference) ([3]; APP/PS1 mice 6M): 12.70±2.30%; ΔS at 30 min (CSF DGE signal difference) ([3]; APP/PS1 mice 6M): 11.84±4.13%; ΔS at 2 min (CSF DGE signal difference) ([3]; WT mice 6M, i.v. bolus 0.15 mL 50% D-glucose): 14.56±2.86%; ΔS at 30 min (CSF DGE signal difference) ([3]; WT mice 6M): 3.18±2.95%; D-glucose uptake rate μin, WT versus APP/PS1 ([3]; mouse, in vivo): no significant difference; Smax (maximum CSF DGE signal), APP/PS1 versus WT ([3]; mouse, in vivo): significantly lower; washout initial rate μout of D-glucose in CSF, APP/PS1 compared to WT ([3]; mouse, in vivo): significantly slower; half-life time of glucose uptake, previous 13C MRS measurements [4]: 5.10 ± 0.11 min
